# Columns and labels:
# [1] = system: HR-AD feed fed Hos: HR-1 series hairless mouse; test: Test using HR-AD feed fed hairless mouse; assay type: in vivo, Hos: HR-1 series hairless mice; settings: for Number of obstructive orifices: among eight orifices at centre of upper eyelid
# Method: It has been known that a HR-AD feed is fed to Hos: HR-1 series hairless mouse, obstruction of the meibomian gland orifices similar to the signs/findings of MGD could be recognized (Japanese Patent Application No. 2012-137778). Thus, effects of sirolimus and deforolimus which are representative examples of the present compounds on the obstruction were investigated.
# 0.1% (w/v) sirolimus suspension: it was prepared by suspending in 0.01% (w/v) hydroxypropylmethyl cellulose.
# 0.1% (w/v) deforolimus suspension: it was prepared by suspending in 0.01% (w/v) hydroxypropylmethyl cellulose. Incidentally, deforolimus used in the present test was prepared according to the method described in JP 2005-516065A.
# Six-weeks old male Hos: HR-1 series hairless mice were grouped into 5 mice of a normal feed fed group (CRF-1 feed, available from Oriental Yeast Co., Ltd.) and 15 mice of a HR-AD feed fed group (available from Nosan Corporation), and fed the normal feed or the HR-AD feed, respectively, which were spontaneously taken. After 28th day from initiation of the feeding, the meibomian gland orifices were observed by using a slit lamp, and a number of obstructive orifices among the eight meibomian gland orifices at the center of the upper eyelid was measured. Incidentally, the presence or absence of obstruction of the meibomian gland orifices was judged by the state whether the meibomian gland orifices were in a turbid and raised or not (see JP 2014-023526A).
# Fifteen mice of the HR-AD feed fed group were grouped into a physiological saline solution-administered group, a 0.1% sirolimus suspension-administered group and a 0.1% deforolimus suspension-administered group (5 mice in each group), and from 29th day from initiation of the feeding, the physiological saline solution (2 μL/eye, twice a day), the 0.1% sirolimus suspension (2 μL/eye, twice a day) or the 0.1% (w/v) deforolimus suspension (2 μL/eye, twice a day) were dropped to the eye for 28 days. At 42nd day and 56th day after initiation of the feeding, a number of obstructions of the meibomian gland orifices was measured by using a slit lamp.
# [2] = system: complete Freund's adjuvant administered rabbit; test: Test using complete Freund's adjuvant administered rabbit; assay type: in vivo, Japanese white rabbits; settings: average; for Score of telangiectasia: right upper eyelid, sum of three fractions
# Method: In a complete Freund's adjuvant administered rabbit, telangiectasia around the meibomian gland orifices, and obstruction at the meibomian gland orifices, which are similar to the signs/findings of MGD can be recognized. Effects of sirolimus which was a representative example of the present compound on the telangiectasia and obstruction were investigated (see JP 2014-024835A).
# 0.1% (w/v) sirolimus suspension: it was prepared by suspending in 0.01% (w/v) hydroxypropylmethyl cellulose. Incidentally, with regard to sirolimus, that purchased from LKT Laboratories, Inc., (Catalog number: R0161) was used (which is the same in the following Examples).
# 10 μL of the complete Freund's adjuvant was administered to the right upper eyelid (3 portions) of about 2 kg of male Japanese white rabbits, respectively. After 4 days from provocation, around the meibomian gland orifices of the right upper eyelid was observed by using slit lamp, a score of telangiectasia and a score of obstruction at the meibomian gland orifices were judged.
# Incidentally, with regard to the score of telangiectasia, in accordance with the criteria in the following Tables 1 and 2, the eyelid margin of the upper eyelid was equally divided to three fractions of the ear side, the center portion and the nose side, the score of telangiectasia around the meibomian gland orifices was judged with regard to the respective fractions, and the sum of the scores of the three fractions was calculated as a score per one eye. Here, the presence or absence of dilation of the capillaries was judged by the state whether the capillaries which cannot be usually recognized with naked eyes can be recognized or not as a result of dilation of the diameter of the blood vessel. Also, the presence or absence of obstruction of the meibomian gland orifices was judged by the state whether the meibomian gland orifices are in a turbid or not.
# The rabbits were grouped into a physiological saline solution-administered group and a 0.1% sirolimus suspension-administered group, and tested with 7 or 8 eyes in each group so that fluctuation of the average value of the respective scores became small. After 5th day from provocation, a physiological saline solution (50 μL/eye, twice a day) or a 0.1% sirolimus suspension (50 μL/eye, twice a day) was dropped into the right eye for 10 days. After 11th and 15th days from provocation, around the meibomian gland orifices of the right upper eyelid was observed by using a slit lamp, whereby the score of telangiectasia was judged and the number of the obstructive orifices was measured.
# [3] = 42nd day after initiation of the feeding, 0.1% (w/v) suspension 2 μL/eye twice a day from 29th day
# [4] = 56th day after initiation of the feeding, 0.1% (w/v) suspension 2 μL/eye twice a day for 28 days
# [5] = 11th day after provocation, 0.1% (w/v) suspension 50 μL/eye twice a day from 5th day
# [6] = 15th day after provocation, 0.1% (w/v) suspension 50 μL/eye twice a day for 10 days
Structure (SMILES),"Effect on number of the obstructions of the meibomian gland orifices (in words) ([1]; 0.1% suspension instilled, versus physiological saline group)","Number of obstructive orifices [1, 3]","Number of obstructive orifices [1, 4]","Score of obstruction of orifices [2, 5]","Score of telangiectasia [2, 5]","Score of obstruction of orifices [2, 6]","Score of telangiectasia [2, 6]"
"CO[C@H]1C[C@@H]2CC[C@@H](C)[C@@](O)(O2)C(=O)C(=O)N2CCCC[C@H]2C(=O)O[C@H]([C@H](C)C[C@@H]2CC[C@@H](OP(C)(C)=O)[C@H](OC)C2)CC(=O)[C@H](C)/C=C(\C)[C@@H](O)[C@@H](OC)C(=O)[C@H](C)C[C@H](C)/C=C/C=C/C=C/1C [0.1% Deforolimus suspension, deforolimus]",decreased,2.7,2.2,–,–,–,–
"CO[C@H]1C[C@@H]2CC[C@@H](C)[C@@](O)(O2)C(=O)C(=O)N2CCCC[C@H]2C(=O)O[C@H]([C@H](C)C[C@@H]2CC[C@@H](O)[C@H](OC)C2)CC(=O)[C@H](C)/C=C(\C)[C@@H](O)[C@@H](OC)C(=O)[C@H](C)C[C@H](C)/C=C/C=C/C=C/1C [0.1% Sirolimus suspension, sirolimus]",–,0.7,0.0,2.3,2.1,1.3,2.1

# — patent US11951098B2, “Therapeutic agent for meibomian dysfunction” (SANTEN PHARMACEUTICAL CO., LTD., priority 2013, dated 2024)
